Source: US20170157228A1, “Immunogenic Polypeptide Composed of HLA-B7 Restricted Tumor Antigen-Derived Optimized Cryptic Peptides, and Uses Thereof” (VAXON BIOTECH, priority 2014, published 2017)
Entries after “also recorded” stand apart in the source; their conditions may differ.

Assays:
[1] = system: HLA-B*0702 transgenic mice; assay: CTL induction in vivo in HLA-B*0702 transgenic mice, ex vivo IFNγ ELISpot of spleen T cells; conditions: for result versus the inverted dipeptide sequence, in terms of number of responding mice: dipeptide vaccination twice at 2 weeks interval, response against optimized and cognate native peptides; for mice responding to at least one native peptide / recognition of each native peptide in vaccinated mice: after two vaccinations with the polypeptide
Protocol: Transgenic Mice. The HLA-B7 H-2 class-I knockout mice were previously described (Rohrlich et al, 2003) and kindly provided by F. Lemonnier (Institut Pasteur, Paris, France).
CTL Induction in vivo in HLA-B*0702 Transgenic Mice. HLA-B*0702 transgenic mice were vaccinated subcutaneously at the base of the tail with 200 μg of optimized dipeptides or 400 μg of Vbx-016 in association with the HV core T13L helper (150 μg) helper peptide and emulsified in Incomplete Freund Adjuvant (IFA) or Montanide ISA51VG (Seppic, Castres, France) twice at two weeks interval.
Seven days after the last vaccination, spleens were removed and T cells were isolated by Ficoll centrifugation and tested ex vivo for the recognition of 10 μM of either the native or optimized peptides. Positive control was Concanavalin A and negative control was medium alone. All conditions were tested in quadriplicates. IFNγ producing T cells was quantified by ELISpot using the Diaclone Kit Murine IFNγ ELISpot.
An immune response was considered positive when there was 1) more than 10 spots difference/10^6 cells between the negative control and the tested peptide and 2) a statistically significant difference between these two groups with T Test (p<0.05).
Each dipeptide was used to vaccinate HLA-B*0702 transgenic mice twice at 2 weeks interval and tested for its capacity to induce an immune response against both optimized peptides and their cognate native counterparts. Dipeptides are described in table 2. In each experiment, the best combination is highlighted in grey.
To evaluate if the Vbx-016 (SEQ ID No: 23) determined in the dipeptidic experiments is optimum, HLA-B*0702 transgenic mice were vaccinated subcutaneously at the base of the tail with 400 μg of Vbx-016 and 150 μg of the HBV core T13L helper peptide emulsified in Incomplete Freund Adjuvant (IFA) or Montanide ISA51VG (Seppic, Castres, France) twice at two weeks interval.

[2] = system: human PBMC from healthy HLA-B*0702 donors; assay: Generation of CTL from human PBMC, IFNγ ELISpot with peptide-loaded T2-B7 cells; assay type: cell-based; conditions: for processing of the dipeptide and recognition of optimized and cognate native peptides by induced CTLs: PBMC culture from healthy human donor stimulated with dipeptide; for CTL immune response induced by the polypeptide: PBMC culture from HLA-B*0702 healthy donor
Protocol: Cells. HLA-B*0702 transfected human T2-B7 cells were previously described (Rohrlich et al, 2003). Cells were grown in penicillin streptomycin FCS 20% supplemented RPMI1640 culture medium.
Generation of CTL from human PBMC. PBMC were collected by leukapheresis from healthy HLA-B*0702 volunteers. Dendritic cells (DC) were produced from adherent cells cultured for seven days with 500 IU/ml GM-CSF and 500 IU/ml IL-4, in complete synthetic medium (AIMV). On day 6, DCs were pulsed with 10 μM of polypeptides overnight. On day 7, CD8+ cells were purified by negative selection with CD8 Dynabeads Untouched Human CD8. CD8+ cells (2×10^5)+CD8− cells (6×10^4) were stimulated with 3×10^4 peptide-pulsed DC in AIMV medium supplemented with 1000 IU/ml IL-6 and 5 IU/ml IL-12, 1 μg/ml anti-CD40 and 500 IU/ml IFNγ in round-bottomed 96-well plates.
From day 7, cultures were restimulated weekly with peptide-loaded DC in the presence of 20 IU/ml IL-2 and 10 ng/ml IL-7, 1 μg/ml anti-CD40 and 500 IU/ml IFNγ.
After the third restimulation, CD8 cells were maintained in AIMV supplemented with 20 IU/ml IL-2 during 7 days. Cultures were starved during one night with AIMV and then were tested in an IFNγ ELISpot assay.
IFNγ ELISpot Assay. For one culture of 96 wells, four pools of 24 wells were collected, CD8 cells were counted and 50 000 CD8 per well were dispatched on the ELISpot plate with 25 000 T2B7 loaded eiher with 10 μM of each native monopeptide or with 10 μM of modified monopeptides composing the polypeptide. Eight replicates of each condition were performed. Positive control was Phytohaemagglutinin A and negative control was T2B7 loaded with an irrelevant peptide not able to bind HLA-B7 molecules.
To evaluate if the junction present in the polypeptide CEA188L9/TERT444A1/MAGE273L9/HER-2/neu246A1 validated in transgenic mice are processed efficiently in humans, human PBMC were stimulated with each dipeptide (CEA188L9/TERT444A1, TERT444A1/MAGE273L9 and MAGE273L9/HER-2/neu246A1) according to the protocol described in the methods. Recognition of the cognate native peptides was evaluated by measuring specific IFNγ producing cells from the CD8+ stimulated by the dipeptide, divided in 4 pools for the test.

APRRLVQLLAPKHSDCLA (7T5HN3M)
result versus the inverted dipeptide sequence, in terms of number of responding mice [1]: better results than the corresponding inverted sequences; also recorded: better results than the inverted sequence

APRRLVQLLGPRALVETL (7T5M1M)
result versus the inverted dipeptide sequence, in terms of number of responding mice [1]: better results than the corresponding inverted sequences; also recorded: better results than the inverted sequence
processing of the dipeptide and recognition of optimized and cognate native peptides by induced CTLs [2]: efficiently processed in vitro in humans

GPRALVETLAPKHSDCLA (7M1HN3M)
result versus the inverted dipeptide sequence, in terms of number of responding mice [1]: better results than the corresponding inverted sequences; also recorded: better results than the inverted sequence
processing of the dipeptide and recognition of optimized and cognate native peptides by induced CTLs [2]: efficiently processed in vitro in humans

GPRALVETLSPRLQLSNL (7M1C1M)
result versus the inverted dipeptide sequence, in terms of number of responding mice [1]: the same results

SPRLQLSNLAPKHSDCLA (7C1HN3M)
result versus the inverted dipeptide sequence, in terms of number of responding mice [1]: better results than the corresponding inverted sequences; also recorded: better results than the inverted sequence

SPRLQLSNLAPRRLVQLL (7C1T5M)
result versus the inverted dipeptide sequence, in terms of number of responding mice [1]: better results than the corresponding inverted sequences; also recorded: better results than the inverted sequence
processing of the dipeptide and recognition of optimized and cognate native peptides by induced CTLs [2]: efficiently processed in vitro in humans

SPRLQLSNLAPRRLVQLLGPRALVETLAPKHSDCLA [Vbx-016, polypeptide of four optimized cryptic peptides targeting TERT, HER-2/neu, MAGE and CEA for HLA-B7 patients]
mice responding to at least one native peptide [1]: all mice respond to at least one native peptide
recognition of each native peptide in vaccinated mice [1]: each native peptide was recognized at least once in one vaccinated mouse
mice responding to at least one native peptide ([1]; listed as SEQ ID No: 23): all mice responded to at least one native peptide
recognition of each native peptide in vaccinated mice ([1]; listed as SEQ ID No: 23): all the native peptides were recognized at least once in one vaccinated mouse
Number of responding mice/total number of mice ([1]; recognition of CEA188, Helper + adjuvant (IFA or montanide), pooled): 13/14
Number of responding mice/total number of mice ([1]; recognition of CEA188, Vbx016 + helper + IFA, two vaccinations, T-test <0.05): 8/9
Number of responding mice/total number of mice ([1]; recognition of CEA188, Vbx016 + helper + Montanide, two vaccinations, T-test <0.05): 5/5
Number of responding mice/total number of mice ([1]; recognition of CEA188L9, Helper + adjuvant (IFA or montanide), pooled): 13/14
Number of responding mice/total number of mice ([1]; recognition of CEA188L9, Vbx016 + helper + IFA): 8/9
Number of responding mice/total number of mice ([1]; recognition of CEA188L9, Vbx016 + helper + Montanide): 5/5
Number of responding mice/total number of mice ([1]; recognition of HER-2Neu246, Helper + adjuvant (IFA or montanide), pooled): 1/14
Number of responding mice/total number of mice ([1]; recognition of HER-2Neu246, Vbx016 + helper + IFA): 1/9
Number of responding mice/total number of mice ([1]; recognition of HER-2Neu246, Vbx016 + helper + Montanide): 0/5
Number of responding mice/total number of mice ([1]; recognition of HER-2Neu246A1, Helper + adjuvant (IFA or montanide), pooled): 2/14
Number of responding mice/total number of mice ([1]; recognition of HER-2Neu246A1, Vbx016 + helper + IFA): 2/9
Number of responding mice/total number of mice ([1]; recognition of HER-2Neu246A1, Vbx016 + helper + Montanide): 0/5
Number of responding mice/total number of mice ([1]; recognition of MageA273A6, Helper + adjuvant (IFA or montanide), pooled): 2/14
Number of responding mice/total number of mice ([1]; recognition of MageA273A6, Vbx016 + helper + IFA): 2/9
Number of responding mice/total number of mice ([1]; recognition of MageA273A6, Vbx016 + helper + Montanide): 0/5
Number of responding mice/total number of mice ([1]; recognition of MageA273I6, Helper + adjuvant (IFA or montanide), pooled): 3/14
Number of responding mice/total number of mice ([1]; recognition of MageA273I6, Vbx016 + helper + IFA): 1/9
Number of responding mice/total number of mice ([1]; recognition of MageA273I6, Vbx016 + helper + Montanide): 2/5
Number of responding mice/total number of mice ([1]; recognition of MageA273L9, Helper + adjuvant (IFA or montanide), pooled): 12/14
Number of responding mice/total number of mice ([1]; recognition of MageA273L9, Vbx016 + helper + IFA): 7/9
Number of responding mice/total number of mice ([1]; recognition of MageA273L9, Vbx016 + helper + Montanide): 5/5
Number of responding mice/total number of mice ([1]; recognition of MageA273V6, Helper + adjuvant (IFA or montanide), pooled): 2/14
Number of responding mice/total number of mice ([1]; recognition of MageA273V6, Vbx016 + helper + IFA): 1/9
Number of responding mice/total number of mice ([1]; recognition of MageA273V6, Vbx016 + helper + Montanide): 1/5
Number of responding mice/total number of mice ([1]; recognition of Tert444, Helper + adjuvant (IFA or montanide), pooled): 12/14
Number of responding mice/total number of mice ([1]; recognition of Tert444, Vbx016 + helper + IFA): 8/9
Number of responding mice/total number of mice ([1]; recognition of Tert444, Vbx016 + helper + Montanide): 4/5
Number of responding mice/total number of mice ([1]; recognition of Tert444A1, Helper + adjuvant (IFA or montanide), pooled): 14/14
Number of responding mice/total number of mice ([1]; recognition of Tert444A1, Vbx016 + helper + IFA): 9/9
Number of responding mice/total number of mice ([1]; recognition of Tert444A1, Vbx016 + helper + Montanide): 5/5
Number of responding mice/total number of mice ([1]; recognition of Vbx-016, Helper + adjuvant (IFA or montanide), pooled): 14/14
Number of responding mice/total number of mice ([1]; recognition of Vbx-016, Vbx016 + helper + IFA): 9/9
Number of responding mice/total number of mice ([1]; recognition of Vbx-016, Vbx016 + helper + Montanide): 4/4
Number of responding mice/total number of mice ([1]; response to two or more native epitopes, Helper + adjuvant (IFA or montanide), pooled, listed as SEQ ID No: 23): a large majority of vaccinated mice responded to two or more cognate native peptides
Number of responding mice/total number of mice ([1]; response to two or more native epitopes, Vbx016 + helper + IFA): 8/9
Number of responding mice/total number of mice ([1]; response to two or more native epitopes, Vbx016 + helper + Montanide): 5/5
Number of responding mice/total number of mice ([1]; response to two or more native epitopes, column Helper + adjuvant (IFA or montanide), pooled): 13/14
Number of responding mice/total number of mice ([1]; response to two or more native epitopes, column Helper + adjuvant (IFA or montanide), pooled, listed as Vbx016): 13/14
CTL immune response induced by the polypeptide [2]: A polyspecific response was induced and several native peptides were recognized by the induced CTLs
CTL immune response induced by the polypeptide ([2]; listed as SEQ ID No: 23): polyspecific CTLs immune response; also recorded: several native peptides were recognized; also recorded: induces a specific CD8^+ T cells response against at least one and usually two or more peptides

SPRLQLSNLGPRALVETL (7C1M1M)
result versus the inverted dipeptide sequence, in terms of number of responding mice [1]: the same results
